Active and inactive are the calls of the source. The calls are words filed in the database; no cut-off is given here.
What was measured:
MSC [1] = assay: Bone activity in human MSC cultures assessed as promotion of osteogenesis at 0.1 to 1 uM dosed on days 1 to 7 and measured on day 7 by alkaline phosphatase activity detection detection assay; assay type: functional; conditions: dose 0.1-1 µM, time 7.0 day
MSC [2] = assay: Induction of osteoblast nodule formation in human MSC cultures assessed as mineral incorporation at 0.1 to 1 uM by blue incubated for 1 to 14 days calcein detection based fluorescent micrography; assay type: functional, cell-based; conditions: dose 0.1-1 µM, time 1-14 day
[3] = target: T1, Tyrosine-protein kinase JAK3 (Homo sapiens) (UniProt P52333); assay: Inhibition of full-length C-terminal his-tagged human JAK3 at 1 uM pre-incubated with enzyme for 1 h prior to the addition of 500 uM ATP relative to control
T1 sequence (whole entry): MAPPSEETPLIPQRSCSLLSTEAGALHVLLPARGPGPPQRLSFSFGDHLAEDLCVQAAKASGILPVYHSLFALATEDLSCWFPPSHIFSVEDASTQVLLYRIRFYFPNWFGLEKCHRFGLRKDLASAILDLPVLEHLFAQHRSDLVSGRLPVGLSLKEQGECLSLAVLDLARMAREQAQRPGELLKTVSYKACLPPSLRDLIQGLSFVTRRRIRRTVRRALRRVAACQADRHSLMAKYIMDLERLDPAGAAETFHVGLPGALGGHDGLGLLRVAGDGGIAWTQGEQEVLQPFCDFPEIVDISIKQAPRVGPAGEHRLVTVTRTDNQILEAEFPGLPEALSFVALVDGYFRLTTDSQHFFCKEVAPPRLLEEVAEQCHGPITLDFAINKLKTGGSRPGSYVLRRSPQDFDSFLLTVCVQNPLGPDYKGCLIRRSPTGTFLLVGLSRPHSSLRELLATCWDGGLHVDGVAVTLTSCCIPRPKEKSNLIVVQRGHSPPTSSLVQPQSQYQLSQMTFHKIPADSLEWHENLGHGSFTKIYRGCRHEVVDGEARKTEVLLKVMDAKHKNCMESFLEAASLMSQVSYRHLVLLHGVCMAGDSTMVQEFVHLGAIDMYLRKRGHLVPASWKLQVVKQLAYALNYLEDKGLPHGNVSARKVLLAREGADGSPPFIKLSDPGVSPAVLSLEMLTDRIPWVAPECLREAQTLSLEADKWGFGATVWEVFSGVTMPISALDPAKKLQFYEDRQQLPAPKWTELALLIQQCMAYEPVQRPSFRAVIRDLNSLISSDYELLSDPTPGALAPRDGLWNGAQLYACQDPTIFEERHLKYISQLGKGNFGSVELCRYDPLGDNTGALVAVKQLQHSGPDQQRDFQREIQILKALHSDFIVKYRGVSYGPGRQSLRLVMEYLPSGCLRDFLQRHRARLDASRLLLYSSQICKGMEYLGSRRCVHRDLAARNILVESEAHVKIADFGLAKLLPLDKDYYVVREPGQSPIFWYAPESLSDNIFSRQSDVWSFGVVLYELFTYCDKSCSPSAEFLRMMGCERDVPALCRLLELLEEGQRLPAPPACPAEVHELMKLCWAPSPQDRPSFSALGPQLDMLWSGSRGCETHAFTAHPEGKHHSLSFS

[4] = target: High affinity nerve growth factor receptor (Homo sapiens) (UniProt P04629); assay: Inhibition of full-length C-terminal his-tagged human TRKA at 1 uM pre-incubated with enzyme for 1 h prior to the addition of 500 uM ATP relative to control
[5] = target: T2, Aurora kinase A (Homo sapiens) (UniProt O14965); assay: Inhibition of full-length C-terminal his-tagged human AUR2 at 1 uM pre-incubated with enzyme for 1 h prior to the addition of 500 uM ATP relative to control
T2 sequence (whole entry): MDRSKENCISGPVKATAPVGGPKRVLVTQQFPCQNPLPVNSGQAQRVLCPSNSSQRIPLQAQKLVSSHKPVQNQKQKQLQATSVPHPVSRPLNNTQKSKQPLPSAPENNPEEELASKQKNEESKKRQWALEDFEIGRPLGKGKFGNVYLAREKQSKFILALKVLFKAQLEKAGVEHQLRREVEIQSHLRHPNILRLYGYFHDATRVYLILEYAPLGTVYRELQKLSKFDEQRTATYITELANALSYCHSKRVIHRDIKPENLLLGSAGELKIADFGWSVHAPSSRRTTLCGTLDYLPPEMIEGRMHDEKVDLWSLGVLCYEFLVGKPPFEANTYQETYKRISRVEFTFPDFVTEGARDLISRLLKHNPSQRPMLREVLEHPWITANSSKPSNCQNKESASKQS

MSC [6] = assay: Bone activity in human MSC cultures assessed as promotion of osteogenesis at 0.1 to 1 uM dosed on days 4 to 7 and measured on day 7 by alkaline phosphatase activity detection detection assay; assay type: functional; conditions: dose 0.1-1 µM, time 4.0 day

High affinity nerve growth factor receptor (Homo sapiens), sequence (P04629 33-796 limits assumed): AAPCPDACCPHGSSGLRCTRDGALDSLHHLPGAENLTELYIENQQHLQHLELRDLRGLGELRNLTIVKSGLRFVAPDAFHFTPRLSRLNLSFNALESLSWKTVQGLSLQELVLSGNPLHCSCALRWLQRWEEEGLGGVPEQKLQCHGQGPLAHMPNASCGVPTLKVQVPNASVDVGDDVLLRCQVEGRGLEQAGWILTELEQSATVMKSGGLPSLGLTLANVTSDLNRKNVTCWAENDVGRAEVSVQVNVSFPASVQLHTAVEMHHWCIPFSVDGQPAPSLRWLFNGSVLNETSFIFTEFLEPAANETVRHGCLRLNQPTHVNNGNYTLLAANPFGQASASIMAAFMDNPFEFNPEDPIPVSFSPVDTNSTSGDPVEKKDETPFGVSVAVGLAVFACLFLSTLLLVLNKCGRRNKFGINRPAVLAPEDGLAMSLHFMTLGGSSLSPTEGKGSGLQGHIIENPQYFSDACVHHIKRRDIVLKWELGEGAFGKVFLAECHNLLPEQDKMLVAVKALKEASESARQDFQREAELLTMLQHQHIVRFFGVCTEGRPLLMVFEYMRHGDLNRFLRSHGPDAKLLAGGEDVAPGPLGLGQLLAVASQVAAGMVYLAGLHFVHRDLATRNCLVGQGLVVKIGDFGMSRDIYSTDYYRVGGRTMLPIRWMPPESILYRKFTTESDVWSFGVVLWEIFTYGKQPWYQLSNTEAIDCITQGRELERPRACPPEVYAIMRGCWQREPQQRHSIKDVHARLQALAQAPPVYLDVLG

Activity (MSC [1]) | inhibition [3] [%] | inhibition [4] [%] | inhibition [5] [%] | Activity (MSC [6]) | Structure (SMILES) | Activity (MSC [2])
Dose-Dependent Effect | – | – | – | – | Cc1ccc(-n2nc(C(C)(C)C)cc2NC(=O)Nc2cc(COc3cccnc3)n[nH]2)cc1 | Active
– | > 90 | > 90 | > 90 | Active | CN(c1ccccc1CNc1nc(Nc2ccc3c(c2)CC(=O)N3)ncc1C(F)(F)F)S(C)(=O)=O | inactive

Source: ChEMBL document CHEMBL5647685
